The source of these data is patent US7847123B2, “Antimicrobial compositions” (Evonik Goldschmidt GmbH, priority 2006, dated 2010).

Experiment [1] concerns C. xerosis. As to the kind of experiment: Antimicrobial effect: germ count over time in 0.3% by weight aqueous solution of test substance. Conditions: 0.3% by weight in water, 37° C.; for germ count CFU/ml, 0 hours: directly after addition (0 h). The experiment is classed as cell-based, Corynebacterium xerosis. As for the experimental part: (§1) 20 ml of a 0.3% by weight solution of the test substance listed below in the table in water was inoculated with 200 μl of a fresh 48 hour culture of C. xerosis or S. epidermidis and incubated for three days at 37° C. Directly after the addition, as well as after 1, 3, 24 and 48 hours, samples, each of 1 ml, were taken and the germ count was determined.

Experiment [2] has as its system S. epidermidis. The description is as above. The experiment is classed as cell-based, Staphylococcus epidermidis. The conditions noted are these: 0.3% by weight in water, 37° C.; for germ count CFU/ml, 0 hours: directly after addition (0 h). Here is the method: as §1
Experiment [3] relates to C. xerosis. Description: pH dependency of the antimicrobial effect: germ count in buffered solutions. The experiment is classed as cell-based, Corynebacterium xerosis. As for the experimental part:
as §1
(§2) The antimicrobial effect of octyllactamide in buffered solutions was tested correspondingly to example 8 at various pH values.

For experiment [4], the system named is S. epidermidis. The description is as above. The experiment is classed as cell-based, Staphylococcus epidermidis. As for the experimental part:
as §1, §2

A value given as a limit tells only on which side of the number the result lay.

With `CCCCCCNC(=O)C(C)O` (stereo not shown) [Hexyllactamide, N-Hexyllactamide], in the experiment with C. xerosis [1], the “germ count CFU/ml, 1 hour” value is given as 5.5E+5 CFU/ml; the “germ count CFU/ml, 3 hours” value amounted to 2.6E+3 CFU/ml; the “germ count CFU/ml, 24 hours” value is listed as less than 2.0E+2 CFU/ml; the “germ count CFU/ml, 48 hours” value was less than 2.0E+2 CFU/ml. Besides, the “germ count CFU/ml, 0 hours” value in the experiment on C. xerosis [1] is 2.5E+6 CFU/ml. Besides, in the experiment with S. epidermidis [2], the “germ count CFU/ml, 1 hour” value is on record as 1.7E+6 CFU/ml; the “germ count CFU/ml, 3 hours” value was found to be 7.1E+5 CFU/ml; the “germ count CFU/ml, 24 hours” value is less than 2.0E+2 CFU/ml; the “germ count CFU/ml, 48 hours” value was less than 2.0E+2 CFU/ml. For the same compound, in the experiment on S. epidermidis [2], the “germ count CFU/ml, 0 hours” value is 8.6E+6 CFU/ml.

For `CCCCCCCCNC(=O)C(C)O` (stereo not shown) [Octyllactamide, N-octyllactamide], the “germ count CFU/ml, 1 hour” value in the experiment on C. xerosis [1] stood at 1.5E+4 CFU/ml; in the experiment with S. epidermidis [2] it was 3.7E+6 CFU/ml; in the experiment on C. xerosis [3] (buffered solution pH 4.5, 1 h), 5.5E+4 CFU/ml; in the experiment with C. xerosis [3] (buffered solution pH 5.5, 1 h) it was 1.8E+5 CFU/ml; in the experiment on C. xerosis [3] (buffered solution pH 6.9, 1 h), 3.3E+3 CFU/ml; with S. epidermidis [4] (buffered solution pH 4.5, 1 h), 2.1E+6 CFU/ml. The “germ count CFU/ml, 1 hour” value in the experiment on S. epidermidis [4] (buffered solution pH 5.5, 1 h) turned out to be 1.7E+6 CFU/ml; with S. epidermidis [4] (buffered solution pH 6.9, 1 h), 1.5E+6 CFU/ml. Also, the “germ count CFU/ml, 3 hours” value in the experiment on C. xerosis [1] is given as less than 2.0E+2 CFU/ml; with S. epidermidis [2], 3.0E+6 CFU/ml; with C. xerosis [3] (buffered solution pH 4.5, 3 h), less than 2.0E+2 CFU/ml; with C. xerosis [3] (buffered solution pH 5.5, 3 h), 3.5E+4 CFU/ml; in the experiment with C. xerosis [3] (buffered solution pH 6.9, 3 h) it was less than 2.0E+2 CFU/ml; with S. epidermidis [4] (buffered solution pH 4.5, 3 h), 7.9E+4 CFU/ml. The “germ count CFU/ml, 3 hours” value came to 4.7E+3 CFU/ml with S. epidermidis [4] (buffered solution pH 5.5, 3 h) and 5.7E+4 CFU/ml in the experiment on S. epidermidis [4] (buffered solution pH 6.9, 3 h). Further, the “germ count CFU/ml, 24 hours” value is less than 2.0E+2 CFU/ml in the experiment with C. xerosis [1]; 2.3E+6 CFU/ml in the experiment on S. epidermidis [2]; less than 2.0E+2 CFU/ml in the experiment with C. xerosis [3] (buffered solution pH 4.5, 24 h); less than 2.0E+2 CFU/ml in the experiment on C. xerosis [3] (buffered solution pH 5.5, 24 h); less than 2.0E+2 CFU/ml in the experiment on C. xerosis [3] (buffered solution pH 6.9, 24 h); less than 2.0E+2 CFU/ml in the experiment with S. epidermidis [4] (buffered solution pH 4.5, 24 h). The “germ count CFU/ml, 24 hours” value in the experiment with S. epidermidis [4] (buffered solution pH 5.5, 24 h) was less than 2.0E+2 CFU/ml; in the experiment on S. epidermidis [4] (buffered solution pH 6.9, 24 h) it was less than 2.0E+2 CFU/ml. Also, the “germ count CFU/ml, 48 hours” value with C. xerosis [1] is reported as less than 2.0E+2 CFU/ml; in the experiment on S. epidermidis [2], 8.5E+5 CFU/ml; in the experiment on C. xerosis [3] (buffered solution pH 4.5, 48 h), less than 2.0E+2 CFU/ml; with C. xerosis [3] (buffered solution pH 5.5, 48 h) it was less than 2.0E+2 CFU/ml; in the experiment with C. xerosis [3] (buffered solution pH 6.9, 48 h), less than 2.0E+2 CFU/ml; with S. epidermidis [4] (buffered solution pH 4.5, 48 h), less than 2.0E+2 CFU/ml. Further, the “germ count CFU/ml, 48 hours” value is given as less than 2.0E+2 CFU/ml in the experiment on S. epidermidis [4] (buffered solution pH 5.5, 48 h) and less than 2.0E+2 CFU/ml in the experiment on S. epidermidis [4] (buffered solution pH 6.9, 48 h). Further, the “germ count CFU/ml, 0 hours” value with C. xerosis [1] is reported as 9.1E+5 CFU/ml; in the experiment with S. epidermidis [2], 1.9E+7 CFU/ml; with C. xerosis [3] (buffered solution pH 4.5, 0 h), 1.0E+6 CFU/ml; with C. xerosis [3] (buffered solution pH 5.5, 0 h), 1.0E+6 CFU/ml; with C. xerosis [3] (buffered solution pH 6.9, 0 h) it was 7.3E+5 CFU/ml; in the experiment on S. epidermidis [4] (buffered solution pH 4.5, 0 h), 3.7E+6 CFU/ml. In addition, the “germ count CFU/ml, 0 hours” value came out at 3.7E+6 CFU/ml in the experiment on S. epidermidis [4] (buffered solution pH 5.5, 0 h) and 3.1E+6 CFU/ml in the experiment with S. epidermidis [4] (buffered solution pH 6.9, 0 h).

Take “PEG-3-octyllactamide [Octyl-PEG-3-lactamide]”: in the experiment with C. xerosis [1], the “germ count CFU/ml, 1 hour” value is recorded as 6.3E+4 CFU/ml; the “germ count CFU/ml, 3 hours” value stood at 3.7E+3 CFU/ml; the “germ count CFU/ml, 24 hours” value is less than 2.0E+2 CFU/ml; the “germ count CFU/ml, 48 hours” value is given as less than 2.0E+2 CFU/ml. Further, the “germ count CFU/ml, 0 hours” value in the experiment on C. xerosis [1] came to 9.1E+5 CFU/ml. Further, in the experiment with S. epidermidis [2], the “germ count CFU/ml, 1 hour” value was 4.1E+6 CFU/ml; the “germ count CFU/ml, 3 hours” value is reported as 3.1E+6 CFU/ml; the “germ count CFU/ml, 24 hours” value was less than 2.0E+2 CFU/ml; the “germ count CFU/ml, 48 hours” value is listed as less than 2.0E+2 CFU/ml. Also, the “germ count CFU/ml, 0 hours” value in the experiment with S. epidermidis [2] worked out at 1.9E+7 CFU/ml.

On to “PEG-10-octyllactamide [Octyl-PEG-10-lactamide]”, for which, in the experiment on C. xerosis [1], the “germ count CFU/ml, 1 hour” value is reported as 4.5E+5 CFU/ml; the “germ count CFU/ml, 3 hours” value is reported as 1.8E+5 CFU/ml; the “germ count CFU/ml, 24 hours” value is reported as 1.6E+3 CFU/ml; the “germ count CFU/ml, 48 hours” value is less than 2.0E+2 CFU/ml. Further, the “germ count CFU/ml, 0 hours” value in the experiment with C. xerosis [1] is 9.1E+5 CFU/ml. In the experiment with S. epidermidis [2], the “germ count CFU/ml, 1 hour” value stood at 2.3E+6 CFU/ml; the “germ count CFU/ml, 3 hours” value came to 9.3E+6 CFU/ml; the “germ count CFU/ml, 24 hours” value was 8.1E+4 CFU/ml; the “germ count CFU/ml, 48 hours” value is on record as less than 2.0E+2 CFU/ml. In addition, in the experiment with S. epidermidis [2], the “germ count CFU/ml, 0 hours” value is recorded as 1.9E+7 CFU/ml.
